US9624213B2 (Plexxikon Inc., priority 2011, dated 2017)

Columns and labels:
COLO205 = COLO205 cell growth inhibitory activity (ATPlite); format: cell-based; conditions: Homo sapiens, COLO 205, 72 h; COLO205 cells, growth inhibition, 3 days
Experimental: (§1) Compounds are assessed in a variety of cell based assays. For example human cell lines with B-Raf V600E mutation (A375 melanoma, SKMEL3 melanoma, and COLO205 colon adenocarcinoma), as well as tumorigenic cell lines with wild-type B-RAF (SW620 colon adenocarcinoma) or with Ras mutations (SKMEL2 melanoma and IPC298 melanoma). Similar assays may be used to assess additional tumorigenic cell lines with Ras mutations, including, but not limited to, M202, M207, M243, M244, M296, S117, HCT116, HCT15, DLD1, MiaPaCa, A549, NCI-H23, NCI-H460, HOP62, MDA-MB231, Hs-578T, HL60, MOLT-4, and CCRF-CEM.
(§2) On day 1, cells are counted, then centrifuged in a conical tube for 5 minutes at 1000 rpm. The supernatant is removed and cells are re-suspended as follows: • SW620 (ATCC catalog #CCL-27): resuspend in Leibovitz's L-15 medium, 2 mM L-glutamine, 10% fetal bovine serum to 6×10^4 cells/mL. • A375 (ATCC catalog #CRL-1619): resuspend in Dulbecco's modified Eagle's medium, 4 mM L-glutamine, 4.5 g/L D-glucose, 10% fetal bovine serum to 6×10^4 cells/mL. • COLO205 (ATCC catalog #CCL-222): resuspend in RPMI 1640, 2 mM L-glutamine, 1.5 g/L sodium bicarbonate, 4.5 g/L D-glucose, 10 mM HEPES, 1.0 mM sodium pyruvate, 10% fetal bovine serum to 6×10^4 cells/mL. • SKMEL2 (ATCC catalog #HTB-68): resuspend in Minimum Eagle essential medium, 2 mM L-glutamine, 1.5 g/L sodium bicarbonate, 0.1 mM non-essential amino acids, 1.0 mM sodium pyruvate, 10% fetal bovine serum to 6×10^4 cells/mL. • SKMEL3 (ATCC catalog #HTB-69): resuspend in McCoy's 5A medium, 1.5 mM L-glutamine, 15% fetal bovine serum to 6×10^4 cells/mL. • IPC298 (DSMZ catalog #ACC 251): resuspend in RPMI 1640, 2 mM L-glutamine, 10% fetal bovine serum to 6×10^4 cells/mL.
(§3) The cells are plated, 50 μL in each well of a 96-well dish (Corning 3610) and incubated at 37° C. in 5% CO2 overnight, cells plated to a final concentration of cells as follows: • SW620: 5,000 cells per well. • A375: 2,000 cells per well. • COLO205: 2,000 cells per well. • SKMEL2: 2,000 cells per well. • SKMEL3: 3,000 cells per well. • IPC298: 2,000 cells per well.
(§4) On day 2, compound at a maximum concentration of 5 mM is serially diluted 1:3 (e.g. 10 μL with 30 μL dimethyl sulfoxide) for a total of 8 point titration with DMSO as a control. A 1 μL aliquot of each dilution point and control is added to 249 μL growth media and 50 μL is added to a well containing cells, providing 10 μM compound at the maximum concentration point. The cells are incubated for 3 days at 37° C. in 5% CO2.
(§5) On day 5, ATPlite 1 step Luminescence Assay System (Perkin Elmer #6016739) is brought to room temperature along with the cell cultures. ATPlite is added 25 μL to each well, shake for 2 minutes, and the cells are incubated at room temperature for 10 minutes, then luminescence is read on Satire reader. The measured luminescence correlates directly with cell number, such that the reading as a function of compound concentration is used to determine the IC50 value.

A375 = experiment: A375_P-ERK / A375 cell activity; format: cell-based; conditions: Homo sapiens, A-375; A375 cells (A375_P-ERK)
Experimental: as §1, §2, §3, §4, §5

Row | IC50 (COLO205) | IC50 (A375) | SMILES
1 | < 1 µM | < 1 µM | CCN(C)S(=O)(=O)Nc1cccc(C(=O)c2c[nH]c3ncc(-c4ccc(C#N)cc4)cc23)c1F [Compound P-0031]
2 | < 1 µM | < 1 µM | CN(C)S(=O)(=O)Nc1cccc(C(=O)c2c[nH]c3ncc(-c4ccc(C(C)(C)C#N)cc4)cc23)c1F [Compound P-0245, 5-[4-(1-cyano-1-methyl-ethyl)phenyl]-3-[3-(dimethylsulfamoylamino)-2-fluoro-benzoyl]-1H-pyrrolo[2,3-b]pyridine]
3 | > 1 µM | < 1 µM | COc1ncc(-c2cnc3[nH]cc(C(=O)c4cccc(NS(=O)(=O)C5CC5)c4F)c3c2)cn1 [Compound P-0067, N-[2-fluoro-3-[5-(2-methoxypyrimidin-5-yl)-1H-pyrrolo[2,3-b]pyridine-3-carbonyl]phenyl]cyclopropanesulfonamide]
4 | < 1 µM | < 1 µM | O=C(c1cccc(NS(=O)(=O)N2CCCC2)c1F)c1c[nH]c2ncc(-c3cnc(NC4CC4)nc3)cc12 [Compound P-0232, N-[3-[5-[2-(cyclopropylamino)pyrimidin-5-yl]-1H-pyrrolo[2,3-b]pyridine-3-carbonyl]-2-fluoro-phenyl]pyrrolidine-1-sulfonamide]
5 | < 1 µM | < 1 µM | CN(C)c1ccc(-c2cnc3[nH]cc(C(=O)c4cccc(NS(=O)(=O)N(C)C)c4F)c3c2)cn1 [Compound P-0030]
6 | < 1 µM | < 1 µM | CCCN(C)S(=O)(=O)Nc1cccc(C(=O)c2c[nH]c3ncc(-c4cnc(NC5CC5)nc4)cc23)c1F [Compound P-0082, 5-[2-(cyclopropylamino)pyrimidin-5-yl]-3-[2-fluoro-3-[[methyl(propyl)sulfamoyl]amino]benzoyl]-1H-pyrrolo[2,3-b]pyridine]
7 | < 1 µM | < 1 µM | CN1CCN(c2cc(-c3cnc4[nH]cc(C(=O)c5c(F)ccc(NS(=O)(=O)N6CCCC6)c5F)c4c3)ncn2)CC1 [Compound P-0319, N-[2,4-difluoro-3-[5-[6-(4-methylpiperazin-1-yl)pyrimidin-4-yl]-1H-pyrrolo[2,3-b]pyridine-3-carbonyl]phenyl]pyrrolidine-1-sulfonamide]
8 | < 1 µM | < 1 µM | CN(C)S(=O)(=O)Nc1cccc(C(=O)c2c[nH]c3ncc(-c4ccc(C(C)(C)O)cc4)cc23)c1F [Compound P-0103, 3-[3-(dimethylsulfamoylamino)-2-fluoro-benzoyl]-5-[4-(1-hydroxy-1-methyl-ethyl)phenyl]-1H-pyrrolo[2,3-b]pyridine]
9 | < 1 µM | < 1 µM | CCN(C)S(=O)(=O)Nc1ccc(F)c(C(=O)c2c[nH]c3ncc(-c4cnc(N5CCN(C(=O)OC(C)(C)C)CC5)nc4)cc23)c1F [Compound P-0264, tert-butyl 4-[5-[3-[3-[[ethyl(methyl)sulfamoyl]amino]-2,6-difluoro-benzoyl]-1H-pyrrolo[2,3-b]pyridin-5-yl]pyrimidin-2-yl]piperazine-1-carboxylate]
10 | < 1 µM | < 1 µM | COc1ncc(-c2cnc3[nH]cc(C(=O)c4c(F)ccc(NS(=O)(=O)N5CCCC5)c4F)c3c2)s1 [Compound P-0270, N-[2,4-difluoro-3-[5-(2-methoxythiazol-5-yl)-1H-pyrrolo[2,3-b]pyridine-3-carbonyl]phenyl]pyrrolidine-1-sulfonamide]
11 | < 1 µM | < 1 µM | COC(=O)C1(c2ccc(-c3cnc4[nH]cc(C(=O)c5cccc(NS(=O)(=O)N6CCCC6)c5F)c4c3)cc2)CC1 [Compound P-0254, methyl 1-[4-[3-[2-fluoro-3-(pyrrolidin-1-ylsulfonylamino)benzoyl]-1H-pyrrolo[2,3-b]pyridin-5-yl]phenyl]cyclopropanecarboxylate]
12 | > 1 µM | < 1 µM | CN(C)S(=O)(=O)Nc1cccc(C(=O)c2c[nH]c3ncc(-c4ccccc4)cc23)c1F [Compound P-0037, 3-[3-(dimethylsulfamoylamino)-2-fluoro-benzoyl]-5-phenyl-1H-pyrrolo[2,3-b]pyridine]
13 | > 1 µM | > 1 µM | O=C(c1c(F)ccc(NS(=O)(=O)N2CCCC2)c1F)c1c[nH]c2ncc(-c3cc(C(F)(F)F)ncn3)cc12 [Compound P-0294, N-[2,4-difluoro-3-[5-[6-(trifluoromethyl)pyrimidin-4-yl]-1H-pyrrolo[2,3-b]pyridine-3-carbonyl]phenyl]pyrrolidine-1-sulfonamide]
14 | < 1 µM | < 1 µM | CCN(C)S(=O)(=O)Nc1ccc(F)c(C(=O)c2c[nH]c3ncc(-c4ccc(C(=O)NC5CC5)nc4)cc23)c1F [Compound P-0312, N-cyclopropyl-5-[3-[3-[[ethyl(methyl)sulfamoyl]amino]-2,6-difluoro-benzoyl]-1H-pyrrolo[2,3-b]pyridin-5-yl]pyridine-2-carboxamide]
15 | < 1 µM | < 1 µM | O=C(c1c(F)ccc(NS(=O)(=O)N2CCC(F)(F)C2)c1F)c1c[nH]c2ncc(-c3cnc(C4CC4)nc3)cc12 [Compound P-0288, N-[3-[5-(2-cyclopropylpyrimidin-5-yl)-1H-pyrrolo[2,3-b]pyridine-3-carbonyl]-2,4-difluoro-phenyl]-3,3-difluoro-pyrrolidine-1-sulfonamide]
16 | < 1 µM | < 1 µM | CC(C)(O)c1ccc(-c2cnc3[nH]cc(C(=O)c4cccc(NS(=O)(=O)N5CCCC5)c4F)c3c2)cc1 [Compound P-0105, N-[2-fluoro-3-[5-[4-(1-hydroxy-1-methyl-ethyl)phenyl]-1H-pyrrolo[2,3-b]pyridine-3-carbonyl]phenyl]pyrrolidine-1-sulfonamide]
17 | < 1 µM | < 1 µM | CCCN(C)S(=O)(=O)Nc1ccc(F)c(C(=O)c2c[nH]c3ncc(-c4ccc(C5(C#N)CC5)cc4)cc23)c1F [Compound P-0079, 5-[4-(1-cyanocyclopropyl)phenyl]-3-[2,6-difluoro-3-[[methyl(propyl)sulfamoyl]amino]benzoyl]-1H-pyrrolo[2,3-b]pyridine]
18 | < 1 µM | < 1 µM | Cc1ccc(-c2cnc3[nH]cc(C(=O)c4cccc(NS(=O)(=O)N(C)C)c4F)c3c2)cn1 [Compound P-0029]
19 | < 1 µM | < 1 µM | O=C(c1c(F)ccc(NS(=O)(=O)N2CCCC2)c1F)c1c[nH]c2ncc(-c3cnc(N4CCOCC4)nc3)cc12 [Compound P-0266, N-[2,4-difluoro-3-[5-(2-morpholinopyrimidin-5-yl)-1H-pyrrolo[2,3-b]pyridine-3-carbonyl]phenyl]pyrrolidine-1-sulfonamide]
